Results: patent US10189854B2, “Substituted pyrimidine compounds” (Grünenthal GmbH, priority 2014, dated 2019)

What follows are molecules tested against human PDE4B1 (Homo sapiens (Human), UniProt Q07343) (assay: cAMP HTRF assay to determine the activity of hPDE4B1). Conditions: IC50 inhibition of PDE4B; human recombinant PDE4B1, cAMP HTRF assay.
Sequence of human PDE4B1 (Q07343 whole entry): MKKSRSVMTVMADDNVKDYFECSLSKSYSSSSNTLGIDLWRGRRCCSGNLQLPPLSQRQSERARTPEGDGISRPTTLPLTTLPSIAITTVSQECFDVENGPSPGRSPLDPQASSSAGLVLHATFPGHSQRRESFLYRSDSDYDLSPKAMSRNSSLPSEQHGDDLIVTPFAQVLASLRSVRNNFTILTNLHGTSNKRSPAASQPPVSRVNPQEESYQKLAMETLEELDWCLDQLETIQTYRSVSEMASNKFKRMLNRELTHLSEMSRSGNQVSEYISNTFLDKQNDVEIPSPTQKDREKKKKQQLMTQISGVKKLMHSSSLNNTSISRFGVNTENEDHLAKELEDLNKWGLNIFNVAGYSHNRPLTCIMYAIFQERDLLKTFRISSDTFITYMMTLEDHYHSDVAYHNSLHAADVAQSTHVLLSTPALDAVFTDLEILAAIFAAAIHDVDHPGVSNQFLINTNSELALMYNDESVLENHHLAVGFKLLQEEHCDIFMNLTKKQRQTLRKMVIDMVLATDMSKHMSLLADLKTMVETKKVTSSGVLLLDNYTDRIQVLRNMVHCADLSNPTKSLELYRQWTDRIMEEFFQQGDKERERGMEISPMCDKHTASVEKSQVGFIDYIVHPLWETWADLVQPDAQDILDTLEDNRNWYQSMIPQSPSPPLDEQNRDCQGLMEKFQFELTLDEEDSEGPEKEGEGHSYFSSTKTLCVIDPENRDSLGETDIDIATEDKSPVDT
Type: biochemical
Summary of the method: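 Recombinant human PDE4B1 expressed in Sf9 cells (4.8 U) was incubated with 40 nM cAMP for 30 min at room temperature in Tris buffer, pH 7.8, with MgCl2, DTT and Tween 20. HTRF detection of remaining cAMP followed, with 1 mM IBMX stop, read 60 min later as the 665/620 nm ratio. Results are % inhibition versus control.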
With O=C(c1ccc2c(c1)N(c1ncc(-c3ccccc3F)cn1)CC21CC1)N1CCCCC12COC2 [Compound 80, [1-[5-(2-Fluorophenyl)-pyrimidin-2-yl]-spiro[1,2-dihydro-indole-3,1′-cyclopropane]-6-yl]-(2-oxa-5-azaspiro[3.5]nonan-5-yl)-methanone] the IC50 was 0.1 to 1 µM. For O=C(NCC1CCOCC1)c1ccc2c(c1)N(c1ncc(-c3ccccc3F)cn1)CC21CC1 [Compound 82, 1-[5-(2-Fluorophenyl)-pyrimidin-2-yl]-N-(tetrahydro-pyran-4-yl-methyl)-spiro[1,2-dihydro-indole-3,1′-cyclopropane]-6-carboxylic acid amide], the IC50 was 1 to 10 µM. O=C(c1ccc2c(c1)N(c1ncc(-c3ccccc3F)cn1)CC21CC1)N1CCCCC1 [Compound 84, [1-[5-(2-Fluorophenyl)-pyrimidin-2-yl]-spiro[1,2-dihydro-indole-3,1′-cyclopropane]-6-yl]-piperidin-1-yl-methanone] showed an IC50 of less than 0.1 µM. For CC(=O)N1CCNC(C(=O)c2ccc3c(c2)N(c2ncc(-c4ccccc4F)cn2)CC32CC2)C1 (stereo not shown) [Compound 85, 1-[5-[1-[5-(2-Fluorophenyl)-pyrimidin-2-yl]-spiro[1,2-dihydro-indole-3,1′-cyclopropane]-6-carbonyl]-piperazin-1-yl]-ethanone], the IC50 was less than 0.1 µM. Molecule CCN1CCN(C(=O)c2ccc3c(c2)N(c2ncc(-c4ccccc4F)cn2)CC32CC2)CC1 [Compound 86, (4-Ethyl-piperazin-1-yl)-[1-[5-(2-fluorophenyl)-pyrimidin-2-yl]-spiro[1,2-dihydro-indole-3,1′-cyclopropane]-6-yl]methanone] has an IC50 of 0.1 to 1 µM. Work on CN(CC1OCCO1)C(=O)c1ccc2c(c1)N(c1ncc(-c3ccccc3F)cn1)CC21CC1 [Compound 87, N-([1,3]Dioxolan-2-yl-methyl)-1-[5-(2-fluorophenyl)-pyrimidin-2-yl]-N-methyl-spiro[1,2-dihydro-indole-3,1′-cyclopropane]-6-carboxylic acid amide] yielded an IC50 of 0.1 to 1 µM. Work on CN(C(=O)c1ccc2c(c1)N(c1ncc(-c3ccccc3F)cn1)CC21CC1)c1ccncc1 [Compound 88, 1-[5-(2-Fluorophenyl)-pyrimidin-2-yl]-N-methyl-N-pyridin-4-yl-spiro[1,2-dihydro-indole-3,1′-cyclopropane]-6-carboxylic acid amide] yielded an IC50 of 0.1 to 1 µM. O=C(c1ccc2c(c1)N(c1ncc(-c3ccccc3F)cn1)CC21CC1)N1CCC1 [Compound 89, (Azetidin-1-yl)-[1-[5-(2-fluorophenyl)-pyrimidin-2-yl]-spiro[1,2-dihydro-indole-3,1′-cyclopropane]-6-yl]-methanone] gave an IC50 of 0.1 to 1 µM. CCN(C)C(=O)c1ccc2c(c1)N(c1ncc(-c3ccccc3F)cn1)CC21CC1 [Compound 90, N-Ethyl-1-[5-(2-fluorophenyl)-pyrimidin-2-yl]-N-methyl-spiro[1,2-dihydro-indole-3,1′-cyclopropane]-6-carboxylic acid amide] was tested, and the IC50 was 0.1 to 1 µM. Work on CN(Cc1ccco1)C(=O)c1ccc2c(c1)N(c1ncc(-c3ccccc3F)cn1)CC21CC1 [Compound 91, 1-[5-(2-Fluorophenyl)-pyrimidin-2-yl]-N-(furan-2-yl-methyl)-N-methyl-spiro[1,2-dihydro-indole-3,1′-cyclopropane]-6-carboxylic acid amide] yielded an IC50 of 0.1 to 1 µM. With COC[C@@H]1CCCN1C(=O)c1ccc2c(c1)N(c1ncc(-c3ccccc3F)cn1)CC21CC1 [Compound 92, [1-[5-(2-Fluorophenyl)-pyrimidin-2-yl]-spiro[1,2-dihydro-indole-3,1′-cyclopropane]-6-yl]-[(2S)-2-(methoxymethyl)-pyrrolidin-1-yl]-methanone] the IC50 was 0.1 to 1 µM. With O=C(c1ccc2c(c1)N(c1ncc(-c3ccccc3F)cn1)CC21CC1)N1CCSCC1 [Compound 93, [1-[5-(2-Fluorophenyl)-pyrimidin-2-yl]-spiro[1,2-dihydro-indole-3,1′-cyclopropane]-6-yl]thiomorpholin-4-yl-methanone] the IC50 was less than 0.1 µM. For CN(CCO)C(=O)c1ccc2c(c1)N(c1ncc(-c3ccccc3F)cn1)CC21CC1 [Compound 95, 1-[5-(2-Fluorophenyl)-pyrimidin-2-yl]-N-(2-hydroxy-ethyl)-N-methyl-spiro[1,2-dihydro-indole-3,1′-cyclopropane]-6-carboxylic acid amide], the IC50 was less than 0.1 µM. With O=C(c1ccc2c(c1)N(c1ncc(-c3ccccc3F)cn1)CC21CC1)N1CCCC(O)C1 (stereo not shown) [Compound 96, [1-[5-(2-Fluorophenyl)-pyrimidin-2-yl]-spiro[1,2-dihydro-indole-3,1′-cyclopropane]-6-yl]-(3-hydroxy-piperidin-1-yl)-methanone] the IC50 was less than 0.1 µM. Molecule O=C(c1ccc2c(c1)N(c1ncc(-c3ccccc3F)cn1)CC21CC1)N1CCCCC1CO (stereo not shown) [Compound 97, [1-[5-(2-Fluorophenyl)-pyrimidin-2-yl]-spiro[1,2-dihydro-indole-3,1′-cyclopropane]-6-yl]-[2-(hydroxymethyl)-piperidin-1-yl]-methanone] has an IC50 of 1 to 10 µM. O=C(c1ccc2c(c1)N(c1ncc(-c3ccccc3F)cn1)CC21CC1)N1CCC(CO)CC1 [Compound 98, [1-[5-(2-Fluorophenyl)-pyrimidin-2-yl]-spiro[1,2-dihydro-indole-3,1′-cyclopropane]-6-yl]-[4-(hydroxymethyl)-piperidin-1-yl]-methanone] was tested, and the IC50 was 0.1 to 1 µM. Work on CN(C)CCN(C)C(=O)c1ccc2c(c1)N(c1ncc(-c3ccccc3F)cn1)CC21CC1 [Compound 99, N-[2-(Dimethylamino)ethyl]-1-[5-(2-fluorophenyl)-pyrimidin-2-yl]-N-methyl-spiro[1,2-dihydro-indole-3,1′-cyclopropane]-6-carboxylic acid amide] yielded an IC50 of less than 0.1 µM. Molecule COC1CCN(C(=O)c2ccc3c(c2)N(c2ncc(-c4ccccc4F)cn2)CC32CC2)CC1 [Compound 100, [1-[5-(2-Fluorophenyl)-pyrimidin-2-yl]-spiro[1,2-dihydro-indole-3,1′-cyclopropane]-6-yl]-(4-methoxy-piperidin-1-yl)-methanone] has an IC50 of 0.1 to 1 µM. CC1COCC(C)N1C(=O)c1ccc2c(c1)N(c1ncc(-c3ccccc3F)cn1)CC21CC1 (stereo not shown) [Compound 101, (3,5-Dimethyl-morpholin-4-yl)-[1-[5-(2-fluorophenyl)-pyrimidin-2-yl]-spiro[1,2-dihydro-indole-3,1′-cyclopropane]-6-yl]-methanone] was tested, and the IC50 was 0.1 to 1 µM. CN(C(=O)c1ccc2c(c1)N(c1ncc(-c3ccccc3F)cn1)CC21CC1)C1CCOCC1 [Compound 102, 1-[5-(2-Fluorophenyl)-pyrimidin-2-yl]-N-methyl-N-tetrahydro-pyran-4-yl-spiro[1,2-dihydro-indole-3,1′-cyclopropane]-6-carboxylic acid amide] showed an IC50 of 0.1 to 1 µM. CC1COCCN1C(=O)c1ccc2c(c1)N(c1ncc(-c3ccccc3F)cn1)CC21CC1 (stereo not shown) [Compound 103, [1-[5-(2-Fluorophenyl)-pyrimidin-2-yl]-spiro[1,2-dihydro-indole-3,1′-cyclopropane]-6-yl]-(3-methyl-morpholin-4-yl)-methanone] showed an IC50 of less than 0.1 µM. Molecule C[C@@H]1CN(C(=O)c2ccc3c(c2)N(c2ncc(-c4ccccc4F)cn2)CC32CC2)C[C@H](C)O1 [Compound 104, [(2R,6S)-2,6-dimethyl-morpholin-4-yl]-[1-[5-(2-fluorophenyl)-pyrimidin-2-yl]-spiro[1,2-dihydro-indole-3,1′-cyclopropane]-6-yl]-methanone] has an IC50 of less than 0.1 µM.
